Values joined by “and” are separate entries in the source; they are usually repeats but may differ in a detail not shown here. Identical values can stand only once. Inconclusive results and toxic doses are left out.

This test concerns L1210 leukemia ip in BDF1 mice, survival T/C. As to the kind of experiment: NCI In Vivo Anticancer Drug Screen. Data for tumor model L1210 Leukemia (intraperitoneal) in B6D2F1 (BDF1) mice. Conditions: endpoint: mean survival time, higher = longer survival. Put shortly: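 Tumor cells were implanted, animals were treated, and survival was followed. The result divides the treated measurement by the vehicle-control measurement.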

The mark [1] stands for this setting: dose: 100.0 mg/kg/injection, schedule: Q01DX009 (ip), vehicle: Klucel (hydroxypropylcellulose) (HPC).
Where [2] appears, read: dose: 100.0 mg/kg/injection, schedule: Q04DX003 (ip), vehicle: Klucel (hydroxypropylcellulose) (HPC).
Setting [3] is: dose: 200.0 mg/kg/injection, schedule: Q01DX009 (ip), vehicle: Klucel (hydroxypropylcellulose) (HPC).
Where [4] appears, read: dose: 200.0 mg/kg/injection, schedule: Q04DX003 (ip), vehicle: Klucel (hydroxypropylcellulose) (HPC).

Consider `Clc1ncnc2nc[nH]c12`, for which the T/C was 93 % of control and 96 % of control (dose: 7.5 mg/kg/injection, schedule: Q01DX010 (ip), vehicle: saline); 103 % of control (dose: 9.37 mg/kg/injection, schedule: Q03HX008 (ip), vehicle: other); 102 % of control (dose: 9.37 mg/kg/injection, schedule: Q03HX016 (ip), vehicle: other); 112 % of control (dose: 9.37 mg/kg/injection, schedule: Q03HX024 (ip), vehicle: other); 105 % of control (dose: 12.5 mg/kg/injection, schedule: Q03HX016 (ip), vehicle: other); 104 % of control (dose: 12.5 mg/kg/injection, schedule: Q03HX024 (ip), vehicle: other). The T/C is 93 % of control and 105 % of control (dose: 15.0 mg/kg/injection, schedule: Q01DX010 (ip), vehicle: saline); 111 % of control (dose: 18.75 mg/kg/injection, schedule: Q03HX008 (ip), vehicle: other); 113 % of control (dose: 18.75 mg/kg/injection, schedule: Q03HX016 (ip), vehicle: other); 110 % of control (dose: 18.75 mg/kg/injection, schedule: Q03HX024 (ip), vehicle: other); 108 % of control (dose: 25.0 mg/kg/injection, schedule: Q01DX006 (iv), vehicle: other); 112 % of control (dose: 25.0 mg/kg/injection, schedule: Q03HX016 (ip), vehicle: other). Also, the T/C reads like this: (dose: 25.0 mg/kg/injection, schedule: Q03HX024 (ip), vehicle: other) 114 % of control; (dose: 30.0 mg/kg/injection, schedule: Q01DX010 (ip), vehicle: saline) 104 % of control and 107 % of control; (dose: 37.5 mg/kg/injection, schedule: Q03HX024 (ip), vehicle: other) 160 % of control; (dose: 50.0 mg/kg/injection, schedule: Q01DX001 (iv), vehicle: other) 98 % of control; (dose: 50.0 mg/kg/injection, schedule: Q01DX005 (ip), vehicle: other) 103 % of control; (dose: 50.0 mg/kg/injection, schedule: Q01DX006 (iv), vehicle: other) 108 % of control. The T/C was 106 % of control and 109 % of control (dose: 50.0 mg/kg/injection, schedule: Q01DX009 (ip), vehicle: other); 112 % of control (dose: 50.0 mg/kg/injection, schedule: Q01DX009 (oral), vehicle: other); 114 % of control (dose: 50.0 mg/kg/injection, schedule: Q01DX009 (sc), vehicle: other); 110 % of control (dose: 50.0 mg/kg/injection, schedule: Q01DX Z (ip), vehicle: carboxymethylcellulose (CMC)); 101 % of control and 103 % of control (dose: 60.0 mg/kg/injection, schedule: Q01DX010 (ip), vehicle: saline); 106 % of control (dose: 75.0 mg/kg/injection, schedule: Q01DX001 (sc), vehicle: other). Also, the T/C is, setting by setting: (dose: 75.0 mg/kg/injection, schedule: Q03HX016 (ip), vehicle: other) 163 % of control; (dose: 75.0 mg/kg/injection, schedule: Q03HX024 (ip), vehicle: other) 189 % of control; (dose: 75.0 mg/kg/injection, schedule: Q04DX003 (ip), vehicle: other) 106 % of control; (dose: 75.0 mg/kg/injection, schedule: Q08DX002 (ip), vehicle: other) 103 % of control; (dose: 100.0 mg/kg/injection, schedule: Q01DX001 (iv), vehicle: other) 101 % of control; (dose: 100.0 mg/kg/injection, schedule: Q01DX001 (oral), vehicle: other) 103 % of control. The T/C is 118 % of control (dose: 100.0 mg/kg/injection, schedule: Q01DX005 (ip), vehicle: other); 113 % of control (dose: 100.0 mg/kg/injection, schedule: Q01DX006 (iv), vehicle: other); 121 % of control (dose: 100.0 mg/kg/injection, schedule: Q01DX009 (ip), vehicle: other); 156 % of control (dose: 100.0 mg/kg/injection, schedule: Q01DX Z (ip), vehicle: carboxymethylcellulose (CMC)); 163 % of control (dose: 100.0 mg/kg/injection, schedule: Q03HX016 (ip), vehicle: other); 150 % of control (dose: 100.0 mg/kg/injection, schedule: Q03HX024 (ip), vehicle: other). Besides, the T/C is 115 % of control (dose: 100.0 mg/kg/injection, schedule: Q04DX003 (ip), vehicle: other); 101 % of control (dose: 100.0 mg/kg/injection, schedule: Q08DX002 (ip), vehicle: other); 152 % of control (dose: 146.0 mg/kg/injection, schedule: Q01DX015 (ip), vehicle: gum acacia); 113 % of control (dose: 150.0 mg/kg/injection, schedule: Q01DX001 (sc), vehicle: other); 114 % of control (dose: 150.0 mg/kg/injection, schedule: Q04DX003 (ip), vehicle: other); 104 % of control (dose: 150.0 mg/kg/injection, schedule: Q08DX002 (ip), vehicle: other). For the same molecule, the T/C is 106 % of control (dose: 200.0 mg/kg/injection, schedule: Q01DX001 (iv), vehicle: other); 110 % of control (dose: 200.0 mg/kg/injection, schedule: Q01DX001 (oral), vehicle: other); 152 % of control and 160 % of control (dose: 200.0 mg/kg/injection, schedule: Q01DX009 (oral), vehicle: other); 109 % of control (dose: 200.0 mg/kg/injection, schedule: Q04DX003 (ip), vehicle: other); 105 % of control (dose: 200.0 mg/kg/injection, schedule: Q08DX002 (ip), vehicle: other); 150 % of control (dose: 218.0 mg/kg/injection, schedule: Q01DX015 (ip), vehicle: gum acacia). In addition, the T/C was 113 % of control (dose: 300.0 mg/kg/injection, schedule: Q01DX001 (sc), vehicle: other); 113 % of control (dose: 300.0 mg/kg/injection, schedule: Q04DX003 (ip), vehicle: other); 105 % of control (dose: 300.0 mg/kg/injection, schedule: Q08DX002 (ip), vehicle: other); 152 % of control (dose: 327.0 mg/kg/injection, schedule: Q01DX015 (ip), vehicle: gum acacia); 110 % of control (dose: 360.0 mg/kg/injection, schedule: Q01DX015 (ip), vehicle: gum acacia); 158 % of control (dose: 400.0 mg/kg/injection, schedule: Q01DX009 (oral), vehicle: other). For the same molecule, the T/C was 105 % of control (dose: 400.0 mg/kg/injection, schedule: Q01DX015 (ip), vehicle: other); 115 % of control (dose: 400.0 mg/kg/injection, schedule: Q04DX003 (ip), vehicle: other); 103 % of control (dose: 400.0 mg/kg/injection, schedule: Q08DX002 (ip), vehicle: other); 90 % of control (dose: 490.0 mg/kg/injection, schedule: Q01DX015 (ip), vehicle: gum acacia); 114 % of control (dose: 800.0 mg/kg/injection, schedule: Q04DX003 (ip), vehicle: other).

Consider `O=C(O)C1C2OC3C(OC(=O)C31)C2Br` (configuration not stated), for which the T/C runs as follows: (dose: 50.0 mg/kg/injection, schedule: Q04DX002 (ip), vehicle: Klucel (hydroxypropylcellulose) (HPC)) 107 % of control; under setting [1], 89 % of control; (dose: 100.0 mg/kg/injection, schedule: Q04DX002 (ip), vehicle: Klucel (hydroxypropylcellulose) (HPC)) 104 % of control; under setting [2], 101 % of control; under setting [3], 91 % of control; (dose: 200.0 mg/kg/injection, schedule: Q04DX002 (ip), vehicle: Klucel (hydroxypropylcellulose) (HPC)) 100 % of control. Also, the T/C runs as follows: under setting [4], 92 % of control; (dose: 400.0 mg/kg/injection, schedule: Q01DX009 (ip), vehicle: Klucel (hydroxypropylcellulose) (HPC)) 88 % of control; (dose: 400.0 mg/kg/injection, schedule: Q04DX002 (ip), vehicle: Klucel (hydroxypropylcellulose) (HPC)) 96 % of control; (dose: 400.0 mg/kg/injection, schedule: Q04DX003 (ip), vehicle: Klucel (hydroxypropylcellulose) (HPC)) 93 % of control.

With `OCCNC1c2ccccc2-c2ccccc21`, the T/C is, setting by setting: (dose: 50.0 mg/kg/injection, schedule: Q01DX009 (ip), vehicle: Klucel (hydroxypropylcellulose) (HPC)) 100 % of control; under setting [1], 118 % of control; under setting [2], 102 % of control; under setting [3], 99 % of control; under setting [4], 107 % of control.

With `Cc1cc(C)c2ccc(N)nc2n1`, the T/C is, setting by setting: (dose: 9.5 mg/kg/injection, schedule: Q01DX001 (ip), vehicle: saline) 86 % of control; (dose: 19.0 mg/kg/injection, schedule: Q01DX001 (ip), vehicle: saline) 91 % of control; (dose: 38.0 mg/kg/injection, schedule: Q01DX001 (ip), vehicle: saline) 101 % of control.

The record behind these values is PubChem BioAssay AID248 (DTP/NCI, 2004).
